# Measured values: patent US12421251B2, “Cystic fibrosis transmembrane conductance regulator modulating agents” (VERTEX PHARMACEUTICALS INCORPORATED, priority 2019, dated 2025)
# Target: CFTR (Homo sapiens, UniProt P13569)
# Test: Membrane potential dye assay (FLIPR Tetra) of CFTR-mediated chloride transport in enteroid cells
# Assay type: cell-based
# Details: human intestinal epithelial enteroid cells, 18-24 h incubation with test compound, acute 10 μM forskolin and 300 nM Compound III; for EC50: CFTR-mediated chloride transport; for Max. Activity: chloride transport as % of triple combination positive control (% Activity)
# Experimental: Base medium (ADF+++) consisted of Advanced DMEM/Ham's F12, 2 mM Glutamax, 10 mM HEPES, 1 μg/ml penicillin/streptomycin.
# Intestinal enteroid maintenance medium (IEMM) consisted of ADF+++, 1×B27 supplement, 1×N2 supplement, 1.25 mM N-acetyl cysteine, 10 mM Nicotinamide, 50 ng/mL hEGF, 10 nM Gastrin, 1 μg/mL hR-spondin-1, 100 ng/mL hNoggin, TGF-b type 1 inhibitor A-83-01, 100 μg/mL Primocin, 10 μM P38 MAPK inhibitor SB202190.
# Bath 1 Buffer consisted of 1 mM MgCl2, 160 mM NaCl, 4.5 mM KCl, 10 mM HEPES, 10 mM Glucose, 2 mM CaCl2.
# Chloride Free Buffer consisted of 1 mM Magnesium Gluconate, 2 mM Calcium Gluconate, 4.5 mM Potassium Gluconate, 160 mM Sodium Gluconate, 10 mM HEPES, 10 mM Glucose.
# Bath1 Dye Solution consisted of Bath 1 Buffer, 0.04% Pluronic F127, 20 μM Methyl Oxonol, 30 μM CaCCinh-A01, 30 μM Chicago Sky Blue.
# Chloride Free Dye Solution consisted of Chloride Free Buffer, 0.04% Pluronic F127, 20 μM Methyl Oxonol, 30 μM CaCCinh-A01, 30 μM Chicago Sky Blue.
# Chloride Free Dye Stimulation Solution consisted of Chloride Free Dye Solution, 10 μM forskolin, 100 μM IBMX, and 300 nM Compound III.
# Human intestinal epithelial enteroid cells were obtained from the Hubrecht Institute for Developmental Biology and Stem Cell Research, Utrecht, The Netherlands and expanded in T-Flasks as previously described (Dekkers J F, Wiegerinck C L, de Jonge H R, Bronsveld I, Janssens H M, de Winter-de Groot K M, Brandsma A M, de Jong N W M, Bijvelds M J C, Scholte B J, Nieuwenhuis E E S, van den Brink S, Clevers H, van der Ent C K, Middendorp S and M Beekman J M. A functional CFTR assay using primary cystic fibrosis intestinal organoids. Nat. Med. 2013 July; 19(7):939-45.
# Enteroid Cell Harvesting and Seeding
# Cells were recovered in cell recovery solution, collected by centrifugation at 650 rpm for 5 min at 4° C., resuspended in TryPLE and incubated for 5 min at 37° C. Cells were then collected by centrifugation at 650 rpm for 5 min at 4° C. and resuspended in IEMM containing 10 μM ROCK inhibitor (RI). The cell suspension was passed through a 40 μm cell strainer and resuspended at 1×10^6 cells/mL in IEMM containing 10 μM RI. Cells were seeded at 5000 cells/well into multi-well plates and incubated for overnight at 37° C., 95% humidity and 5% CO2 prior to assay.
# Membrane Potential Dye Assay
# Enteroid cells were incubated with test compound in IEMM for 18-24 h at 37° C., 95% humidity and 5% CO2. Following compound incubations, a membrane potential dye assay was employed using a FLIPR Tetra to directly measure the potency and efficacy of the test compound on CFTR-mediated chloride transport following acute addition of 10 μM forskolin and 300 nM N-[2,4-bis(1,1-dimethylethyl)-5-hydroxyphenyl]-1,4-dihydro-4-oxoquinoline-3-carboxamide. Briefly, cells were washed 5 times in Bath 1 Buffer. Bath 1 Dye Solution was added and the cells were incubated for 25 min at ambient temperature. Following dye incubation, cells were washed 3 times in Chloride Free Dye Solution. Chloride transport was initiated by addition of Chloride Free Dye Stimulation Solution and the fluorescence signal was read for 15 min. The CFTR-mediated chloride transport for each condition was determined from the AUC of the fluorescence response to acute forskolin and 300 nM N-[2,4-bis(1,1-dimethylethyl)-5-hydroxyphenyl]-1,4-dihydro-4-oxoquinoline-3-carboxamide stimulation. Chloride transport was then expressed as a percentage of the chloride transport following treatment with 1 μM (14S)-8-[3-(2-{Dispiro[2.0.2.1]heptan-7-yl}ethoxy)-1H-pyrazol-1-yl]-12,12-dimethyl-2λ^6-thia-3,9,11,18,23-pentaazatetracyclo[17.3.1.111,14.05,10]-tetracosa-1(22),5,7,9,19(23),20-hexaene-2,2,4-trione, 3 μM ((R)-1-(2,2-difluorobenzo[d][1,3]dioxol-5-yl)-N-(1-(2,3-dihydroxypropyl)-6-fluoro-2-(1-hydroxy-2-methylpropan-2-yl)-1H-indol-5-yl)cyclopropanecarboxamide and 300 nM acute N-[2,4-bis(1,1-dimethylethyl)-5-hydroxyphenyl]-1,4-dihydro-4-oxoquinoline-3-carboxamide triple combination positive control (% Activity). […]
# Sequence of CFTR (P13569 with tags, fused parts or gaps DEL508-508): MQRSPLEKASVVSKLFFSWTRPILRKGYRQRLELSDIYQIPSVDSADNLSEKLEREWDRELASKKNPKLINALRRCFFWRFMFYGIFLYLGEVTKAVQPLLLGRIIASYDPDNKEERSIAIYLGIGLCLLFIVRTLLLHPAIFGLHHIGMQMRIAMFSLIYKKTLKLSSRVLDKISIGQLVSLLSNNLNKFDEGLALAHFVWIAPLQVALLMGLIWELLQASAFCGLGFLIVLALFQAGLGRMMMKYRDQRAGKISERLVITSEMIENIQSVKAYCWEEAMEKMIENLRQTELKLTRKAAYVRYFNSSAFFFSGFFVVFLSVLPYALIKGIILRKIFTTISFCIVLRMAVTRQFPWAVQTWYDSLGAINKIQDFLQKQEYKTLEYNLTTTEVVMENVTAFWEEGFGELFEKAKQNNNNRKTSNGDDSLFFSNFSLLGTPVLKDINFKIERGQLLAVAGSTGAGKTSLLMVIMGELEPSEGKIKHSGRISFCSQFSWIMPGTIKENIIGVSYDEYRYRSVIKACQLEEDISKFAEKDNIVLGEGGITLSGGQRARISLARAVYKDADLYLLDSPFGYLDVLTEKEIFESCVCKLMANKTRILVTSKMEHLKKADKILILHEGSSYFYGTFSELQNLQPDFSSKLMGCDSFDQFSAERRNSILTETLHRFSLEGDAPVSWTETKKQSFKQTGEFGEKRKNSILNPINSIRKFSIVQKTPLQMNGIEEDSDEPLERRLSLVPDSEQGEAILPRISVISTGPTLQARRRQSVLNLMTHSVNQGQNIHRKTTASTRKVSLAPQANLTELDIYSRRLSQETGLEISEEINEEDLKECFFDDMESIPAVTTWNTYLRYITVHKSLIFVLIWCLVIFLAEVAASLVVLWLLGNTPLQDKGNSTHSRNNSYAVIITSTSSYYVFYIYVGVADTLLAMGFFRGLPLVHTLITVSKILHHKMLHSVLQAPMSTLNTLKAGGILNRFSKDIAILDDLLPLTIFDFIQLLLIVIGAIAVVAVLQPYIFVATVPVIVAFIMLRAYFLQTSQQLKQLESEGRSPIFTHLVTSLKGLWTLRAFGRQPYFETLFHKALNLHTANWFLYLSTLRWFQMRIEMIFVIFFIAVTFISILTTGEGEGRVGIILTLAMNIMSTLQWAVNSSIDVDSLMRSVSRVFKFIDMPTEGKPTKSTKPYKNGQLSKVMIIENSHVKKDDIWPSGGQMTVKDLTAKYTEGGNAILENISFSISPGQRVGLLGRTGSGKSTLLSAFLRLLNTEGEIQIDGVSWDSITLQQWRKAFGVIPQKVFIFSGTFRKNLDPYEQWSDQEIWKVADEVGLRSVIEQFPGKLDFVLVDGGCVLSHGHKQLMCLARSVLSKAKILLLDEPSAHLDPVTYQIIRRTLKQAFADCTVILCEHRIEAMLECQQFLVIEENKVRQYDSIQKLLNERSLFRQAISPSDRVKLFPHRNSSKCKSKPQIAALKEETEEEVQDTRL
SMILES,EC50,Max. Activity
"[2H]C1([2H])C2(CC2)C([2H])([2H])C1([2H])N1C(=O)c2cccc(c2)S(=O)(=O)Nc2nc(cc(-c3c(C)cccc3C)n2)OC[C@H]1CC(C)C [Compound Ib, (11R)-6-(2,6-Dimethylphenyl)-11-isobutyl-2,2-dioxo-12-(4,4,5,6,6-pentadeuteriospiro[2.3]hexan-5-yl)-9-oxa-2-thia-3,5,12,19-tetrazatricyclo[12.3.1.14,8]nonadeca-1(18),4,6,8(19),14,16-hexaen-13-one]",< 1000 nM,+++ (+++ is >60%)
"[2H]C1([2H])C([2H])([2H])C12CC(N1C(=O)c3cccc(c3)S(=O)(=O)Nc3nc(cc(-c4c(C)cccc4C)n3)OC[C@H]1CC(C)C)C2 [Compound Ia, (11R)-6-(2,6-Dimethylphenyl)-11-(2-methylpropyl)-12-[(1,1,2,2-tetradeutero)spiro[2.3]hexan-5-yl]-9-oxa-2λ^6-thia-3,5,12,19-tetraazatricyclo[12.3.1.14,8]nonadeca-1(17),4(19),5,7,14(18),15-hexaene-2,2,13-trione]",< 1000 nM,+++ (+++ is >60%)
"Cc1cccc(C)c1-c1cc2nc(n1)NS(=O)(=O)c1cccc(c1)C(=O)N(C1CC3(CC3)C1)[C@H](CC(C)C)CO2 [Compound I, (11R)-6-(2,6-dimethylphenyl)-11-(2-methylpropyl)-12-{spiro[2.3]hexan-5-yl}-9-oxa-2λ^6-thia-3,5,12,19-tetraazatricyclo[12.3.1.14,8]nonadeca-1(17),4(19),5,7,14(18),15-hexaene-2,2,13-trione]",< 1000 nM,+++ (+++ is >60%)
"[2H]C1(N2C(=O)c3cccc(c3)S(=O)(=O)Nc3nc(cc(-c4c(C)cccc4C)n3)OC[C@H]2CC(C)C)CC2(CC2)C1 [Compound Ic, (11R)-12-(5-Deuteriospiro[2.3]hexan-5-yl)-6-(2,6-dimethylphenyl)-11-isobutyl-2,2-dioxo-9-oxa-2-thia-3,5,12,19-tetrazatricyclo[12.3.1.14,8]nonadeca-1(18),4,6,8(19),14,16-hexaen-13-one]",< 1000 nM,+++ (+++ is >60%)
"[2H]C([2H])([2H])c1cccc(C([2H])([2H])[2H])c1-c1cc2nc(n1)NS(=O)(=O)c1cccc(c1)C(=O)N(C1CC3(CC3)C1)[C@H](CC(C)C)CO2 [Compound Id, (11R)-6-[2,6-di(trideutero)methylphenyl]-11-(2-methylpropyl)-12-{spiro[2.3]hexan-5-yl}-9-oxa-2λ^6-thia-3,5,12,19-tetraazatricyclo[12.3.1.14,8]nonadeca-1(17),4(19),5,7,14(18),15-hexaene-2,2,13-trione]",< 1000 nM,+++ (+++ is >60%)
